The record followed here is patent publication US10590106B2, “Certain chemical entities, compositions, and methods” (NeuPharma, Inc., priority 2012, dated 2020).

The target in one assay is BRAF (Homo sapiens (Human), UniProt P15056). In words: Inhibitory activity against kinase BRAF, Z'-LYTE method (Invitrogen). The format is biochemical. The following applies: 1 μM compound. The protocol:
Inhibitory activities Inhibitory activities of compounds against BRAF, and BRAF V600E were measured by Invitrogen using Z′-LYTE® Method as briefly described in the following. 4× Test compounds are dissolved in 1% DMSO. […] ATP solutions are diluted to a 4×ATP working concentration in Kinase Buffer (50 mM HEPES pH 7.5, 0.01% BRIJ-35, 10 mM MgCl2, 1 mM EGTA). Reaction started by 30-second shaking of mixture consisting of 2.5 μL 4× test compound, […] and 2.5 μL 4×ATP Solution on Bar-coded Corning, low volume NBS, black 384-well plate (Corning Cat. #3676). Then the mixture was incubated for 60-minute at room temperature for the kinase reaction, followed by addition of 5 μL of a 1:1024 dilution of development reagent A and 30-second plate shake. The mixture was then incubated for another 60-minute at room temperature for development reaction. Fluorescence was read by plate reader. IC50 was calculated by plotting the concentration of compound vs the percentage of inhibition in treated wells using GraphPad Prism 5.
Table 2 and 3 show % inhibition at 1 μM of several compounds of the invention against BRAF and BRAF V600E, respectively, using Z′-LYTE® method.

For a further assay, the system named is A375 cells. Briefly: Inhibition of cancer cell growth, MTT or MTS assay, A375. The format is cell-based. The note with it: Homo sapiens, A-375; 72 h incubation. Put shortly: (§1)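 Cells in RPMI 1640 with 10% FBS were seeded at ~2000 (A375) or 4000 (A549, Colo205) per well, grown 24 h, then exposed to compound 72 h at 1% final DMSO. Read-out by MTT (570 nm) or MTS (490 nm). IC50 from concentration vs percent inhibition, triplicates.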
In general terms: Tetrazolium dyes change colour on reduction, which living cells bring about.

Another assay has as its target BRAF V600E (Homo sapiens (Human), UniProt P15056, V600E). Briefly: Inhibitory activity against kinase BRAF V600E, Z'-LYTE method (Invitrogen). It is filed as biochemical. The note with it: 1 μM compound; read-out: Inhibition (% inhibition at 1 μM) against BRAF V600E. The essentials:
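FRET-based Z′-LYTE peptide-phosphorylation assay in 50 mM HEPES pH 7.5, 0.01% BRIJ-35, 10 mM MgCl2, 1 mM EGTA; kinase reaction 60 min at room temperature, then 60 min development before fluorescence read. IC50 from concentration vs % inhibition; single-point % inhibition tested at 1 μM.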

The test system of the next assay is A549 cells. Briefly: Inhibition of cancer cell growth, MTT or MTS assay, A549. It is filed as cell-based. The note with it: Homo sapiens, 72 h incubation. Put shortly: as §1
For another assay, the target named is KDR (VEGFR2) (Homo sapiens (Human), UniProt P35968). Briefly: Inhibitory activity against kinase KDR, Z'-LYTE method (Invitrogen). The following applies: 1 μM compound; read-out: Inhibition (% inhibition at 1 μM) against KDR. It is filed as biochemical. Put shortly: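 Human KDR (VEGFR2) kinase inhibition was measured with Invitrogen's Z′-LYTE® method. A 2× mixture of KDR and Tyr 01 peptide is made in 50 mM HEPES pH 7.5, 0.01% BRIJ-35, 10 mM MgCl2, 1 mM EGTA. Each 10 μL reaction holds 0.5-11.7 ng enzyme and 2 μM Tyr 01. It incubates for 1 hour, then 5 μL of Development Reagent B diluted 1:256 is added.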
Sequence of KDR (VEGFR2) (P35968 20-1356): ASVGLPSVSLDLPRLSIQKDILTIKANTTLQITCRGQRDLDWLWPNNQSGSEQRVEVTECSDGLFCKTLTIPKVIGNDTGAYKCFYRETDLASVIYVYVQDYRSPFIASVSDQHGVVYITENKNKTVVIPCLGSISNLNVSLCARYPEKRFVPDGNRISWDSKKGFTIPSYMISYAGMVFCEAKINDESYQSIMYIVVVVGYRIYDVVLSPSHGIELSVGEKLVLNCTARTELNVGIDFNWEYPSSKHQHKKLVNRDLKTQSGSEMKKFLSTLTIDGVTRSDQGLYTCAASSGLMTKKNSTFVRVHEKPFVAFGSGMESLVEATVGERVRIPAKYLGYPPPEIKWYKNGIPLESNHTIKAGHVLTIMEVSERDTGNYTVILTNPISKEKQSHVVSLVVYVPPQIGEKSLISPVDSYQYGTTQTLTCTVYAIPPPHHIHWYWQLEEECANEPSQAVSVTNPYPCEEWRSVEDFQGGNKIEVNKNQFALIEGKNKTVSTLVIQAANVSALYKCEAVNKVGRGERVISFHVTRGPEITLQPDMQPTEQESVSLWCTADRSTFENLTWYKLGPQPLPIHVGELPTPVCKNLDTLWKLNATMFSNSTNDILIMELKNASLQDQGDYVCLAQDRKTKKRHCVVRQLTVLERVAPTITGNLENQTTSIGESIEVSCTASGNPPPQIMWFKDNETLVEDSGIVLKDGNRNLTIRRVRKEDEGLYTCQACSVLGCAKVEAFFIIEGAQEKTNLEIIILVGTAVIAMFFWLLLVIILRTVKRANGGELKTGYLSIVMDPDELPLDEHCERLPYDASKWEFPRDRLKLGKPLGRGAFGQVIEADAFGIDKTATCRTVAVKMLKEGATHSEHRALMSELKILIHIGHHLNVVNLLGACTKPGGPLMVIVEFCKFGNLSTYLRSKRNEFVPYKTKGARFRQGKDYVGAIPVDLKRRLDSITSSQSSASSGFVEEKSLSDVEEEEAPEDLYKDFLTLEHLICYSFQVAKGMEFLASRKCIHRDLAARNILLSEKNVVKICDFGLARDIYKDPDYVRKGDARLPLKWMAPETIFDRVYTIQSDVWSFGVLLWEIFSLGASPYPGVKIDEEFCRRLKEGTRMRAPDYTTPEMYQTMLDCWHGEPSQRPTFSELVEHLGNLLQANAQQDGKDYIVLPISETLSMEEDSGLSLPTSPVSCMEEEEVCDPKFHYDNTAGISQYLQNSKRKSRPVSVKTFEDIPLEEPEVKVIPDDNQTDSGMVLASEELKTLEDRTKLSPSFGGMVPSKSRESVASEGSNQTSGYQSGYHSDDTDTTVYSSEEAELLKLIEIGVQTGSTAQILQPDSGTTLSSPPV

Sequence of BRAF (P15056 whole entry): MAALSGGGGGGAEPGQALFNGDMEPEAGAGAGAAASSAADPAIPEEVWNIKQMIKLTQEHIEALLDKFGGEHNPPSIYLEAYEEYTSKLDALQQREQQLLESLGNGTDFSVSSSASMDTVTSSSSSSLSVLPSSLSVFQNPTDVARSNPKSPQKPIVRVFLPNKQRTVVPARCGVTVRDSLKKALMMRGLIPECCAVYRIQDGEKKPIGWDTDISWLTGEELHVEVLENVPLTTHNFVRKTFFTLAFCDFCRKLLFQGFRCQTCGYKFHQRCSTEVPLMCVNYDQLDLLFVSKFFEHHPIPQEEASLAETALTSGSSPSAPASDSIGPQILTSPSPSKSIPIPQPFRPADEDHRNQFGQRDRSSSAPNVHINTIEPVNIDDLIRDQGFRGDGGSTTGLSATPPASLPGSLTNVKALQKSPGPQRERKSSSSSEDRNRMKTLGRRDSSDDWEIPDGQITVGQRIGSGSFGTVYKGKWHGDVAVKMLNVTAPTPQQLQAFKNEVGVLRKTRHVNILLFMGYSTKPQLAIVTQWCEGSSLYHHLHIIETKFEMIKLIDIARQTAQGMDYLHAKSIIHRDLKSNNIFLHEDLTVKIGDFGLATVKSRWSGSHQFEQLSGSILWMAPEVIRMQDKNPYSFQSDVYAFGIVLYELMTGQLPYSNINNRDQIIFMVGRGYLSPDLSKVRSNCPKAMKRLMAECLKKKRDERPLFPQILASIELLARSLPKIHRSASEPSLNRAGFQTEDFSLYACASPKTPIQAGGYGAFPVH
Sequence of BRAF V600E (P15056 whole entry V600E): as the sequence (P15056 whole entry) above, with V600E counted along it

Take `O=C(Nc1ccc(Cl)cc1)Nc1ccc(Oc2ccc3nccnc3c2)cc1F` [Compound C096, 1-(4-chlorophenyl)-3-(2-fluoro-4-(quinoxalin-6-yloxy)phenyl)urea]: the inhibition (commonly the change of the read-out against control, counted positive when it falls) at 1 µM on BRAF was less than 70%; at BRAF V600E, greater than 89%. Further, in the assay with A375 cells, the IC50 (in general, the concentration that inhibits the measured activity by half) is greater than 5 µM.

On to `O=C(Nc1ccc(F)cc1)Nc1ccc(Oc2ccc3nccnc3c2)cc1F` [Compound C094, 1-(2-fluoro-4-(quinoxalin-6-yloxy)phenyl)-3-(4-fluorophenyl)urea], for which the values for the inhibition at 1 µM at BRAF and at BRAF V600E were 70 to 89% and greater than 89%, respectively. In addition, the IC50 in the assay on A375 cells was greater than 5 µM.

As to `O=C(Nc1ccc(Cl)cc1)Nc1ccc(F)c(Oc2ccc3ncc(N4CCNCC4)nc3c2)c1` [Compound C064, 1-(4-chlorophenyl)-3-(4-fluoro-3-((3-(piperazin-1-yl)quinoxalin-6-yl)oxy)phenyl)urea], the inhibition at 1 µM against BRAF, at KDR (VEGFR2) and at BRAF V600E was greater than 89% throughout. Moreover, in the assay on A549 cells, the IC50 was in the range of 2 to 5 µM.

Take `O=C(Nc1cccc(F)c1)Nc1cccc(Oc2ccc3nccnc3c2)c1` [Compound C002, 1-(3-fluorophenyl)-3-(3-(quinoxalin-6-yloxy)phenyl)urea]: the inhibition at 1 µM on BRAF, on KDR (VEGFR2) and at BRAF V600E was 70 to 89% throughout. The compound also displayed an IC50 with A375 cells greater than 5 µM.

For `O=C(Nc1cccc(Oc2ccc3ncc(N4CCNCC4)nc3c2)c1)Nc1cccc(C(F)(F)F)c1` [Compound C040, 1-(3-((3-(piperazin-1-yl)quinoxalin-6-yl)oxy)phenyl)-3-(3-(trifluoromethyl)phenyl)urea], the inhibition at 1 µM against BRAF, at KDR (VEGFR2) and on BRAF V600E was greater than 89% in each case. This compound displayed an IC50 with A549 cells of 2 to 5 µM.

On to `O=C(Nc1ccc(F)c(Cl)c1)Nc1ccc(F)c(Oc2ccc3ncc(N4CCNCC4)nc3c2)c1` [Compound C067, 1-(3-chloro-4-fluorophenyl)-3-(4-fluoro-3-((3-(piperazin-1-yl)quinoxalin-6-yl)oxy)phenyl)urea], for which the inhibition at 1 µM against BRAF, at KDR (VEGFR2) and at BRAF V600E was greater than 89% each time. In the assay on A549 cells, this compound yielded an IC50 of less than 2 µM.

Take `O=C(Nc1cccc(Oc2ccc3ncc(N4CCOCC4)nc3c2)c1)Nc1ccc(Cl)c(C(F)(F)F)c1` [Compound C049, 1-(4-chloro-3-(trifluoromethyl)phenyl)-3-(3-((3-morpholinoquinoxalin-6-yl)oxy)phenyl)urea]: the inhibition at 1 µM on BRAF is 70 to 89%; at KDR (VEGFR2) it was greater than 89%; on BRAF V600E it was 70 to 89%. Besides, the IC50 in the assay on A549 cells lay in the range of 2 to 5 µM.

Turning to `O=C(Nc1cccc(Oc2ccc3ncc(N4CCOCC4)nc3c2)c1)Nc1ccc(F)c(F)c1` [Compound C044, 1-(3,4-difluorophenyl)-3-(3-((3-morpholinoquinoxalin-6-yl)oxy)phenyl)urea], the inhibition at 1 µM against BRAF is 70 to 89%; at KDR (VEGFR2), 70 to 89%; at BRAF V600E, greater than 89%. Further, in the assay with A549 cells, the IC50 was greater than 5 µM.

Turning to `O=C(Nc1ccc(F)cc1)Nc1cccc(Oc2ccc3ncc(N4CCOCC4)nc3c2)c1` [Compound C043, 1-(4-fluorophenyl)-3-(3-((3-morpholinoquinoxalin-6-yl)oxy)phenyl)urea], the values for the inhibition at 1 µM on BRAF, at KDR (VEGFR2) and on BRAF V600E were 70 to 89%, greater than 89% and greater than 89%, respectively. For the same compound, the IC50 with A549 cells is greater than 5 µM.

Take `O=C(Nc1ccc(Oc2ccc3ncc(N4CCOCC4)nc3c2)cc1)Nc1cccc(Cl)c1` [Compound C081, 1-(3-chlorophenyl)-3-(4-((3-morpholinoquinoxalin-6-yl)oxy)phenyl)urea]: the values for the inhibition at 1 µM against BRAF, on KDR (VEGFR2) and at BRAF V600E were less than 70%, greater than 89% and greater than 89%, respectively. In addition, in the assay on A549 cells, the IC50 is greater than 5 µM.
